Measured values reported in EP4745153A1, “GLP-1, GIP AND GCG RECEPTOR […] USE THEREOF” (Jiangsu Hengrui Pharmaceuticals Co., Ltd., priority 2023, dated 2025).
Starred links: 1 amine or outer side, 2 acyl side, 3 side chain; linkers in the order of their positions; H or OH if unused. Non-standard residues stand in square brackets, D forms with d. Residues, ends and D or L forms follow the SMILES beside them. Groups on a side chain read outwards from the residue. *: point of attachment. C20 diacid = O=C(O)CCCCCCCCCCCCCCCCCCC(=O)*; γGlu = O=C(O)[C@H](CCC(=O)[*:2])N[*:1]; αMeL = CC(C)C[C@](C)(N)C(=O)O; AEEA = NCCOCCOCC(=O)O; Aib = CC(C)(N)C(=O)O

Key:
human GLP-1R = target: T1, human GLP-1R (Homo sapiens, UniProt P43220); assay: cAMP HTRF agonist activity assay in CHO-K1 cells expressing GLP-1R; format: cell-based; conditions: read-out: Activity against human GLP-1R (EC50 nM); also: 5% FBS, 0.1% Casein
T1 construct: expressed in transfected cells; host or cells: CHO-K1 clonal cell line
T1 sequence (P43220 24-463): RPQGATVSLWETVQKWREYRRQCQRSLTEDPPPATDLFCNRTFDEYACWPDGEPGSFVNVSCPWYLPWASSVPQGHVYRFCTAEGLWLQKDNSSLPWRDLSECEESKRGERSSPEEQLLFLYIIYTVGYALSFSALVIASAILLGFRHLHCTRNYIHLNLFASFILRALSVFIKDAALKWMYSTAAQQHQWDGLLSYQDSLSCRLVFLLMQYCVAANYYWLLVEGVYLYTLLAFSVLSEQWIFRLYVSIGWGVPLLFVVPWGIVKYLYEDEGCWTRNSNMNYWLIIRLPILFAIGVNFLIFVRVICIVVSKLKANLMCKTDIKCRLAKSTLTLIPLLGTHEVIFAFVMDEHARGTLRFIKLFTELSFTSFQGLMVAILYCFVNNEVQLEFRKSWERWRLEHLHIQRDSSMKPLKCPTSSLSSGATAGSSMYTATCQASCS
Method: (§1) Functional activity was determined in CHO-K1 clonal cell lines expressing GIPR, GLP-1R, and GCGR. […] Each recipient cell (5000 cells/well) was added to an SV 96-well plate (Cisbio, 66PL96025) and incubated with the prepared polypeptide at 37°Cfor 30 min. The resulting increase in intracellular cAMP was quantitatively measured using the cAMP-GS dynamic HTRF assay kit (Cisbio, 62AM4PEJ). Briefly, the intracellular cAMP levels were determined by adding cAMP-d2 conjugate in cell lysis buffer, followed by the antibody anti-cAMP-Eu cryptate (also in cell lysis buffer).
(§2) Using the maximum response percentage vs. the added polypeptide concentration, the relative EC50 values were derived through nonlinear regression analysis and fitted to a four-parameter logarithmic equation. For specific data, refer to Tables 7-1 to 7-8 below. […]

[1] = Pharmacokinetics in mice after single intravenous injection; set-up: species or system C57 mice; conditions: male, C57, mouse, in vivo, iv
Method: Male C57 mice were used as test animals. The target compound was administered via a single intravenous injection, and the pharmacokinetic characteristics of the compound in C57 mice in vivo (plasma) were determined.
Male C57 mice, weighing approximately 25g, aged 4-6 weeks. After preparing the polypeptide compound solution using 1×PBS dissolving solution, the compound was administered intravenously at a dose of 200 nmol/kg, where each compound was administered to 3 animals. Blood samples of 60 µL were collected at 5 min, 15 min, 0.5 h, 1 h, 2 h, 4 h, 6 h, 24 h, 48 h and 72 h after the infusion was completed and transferred to centrifuge tubes containing EDTA-K2 anticoagulant. Whole blood samples were centrifuged at 4000 g for 5 min at 4°C. Plasma was separated and plasma samples were frozen and stored at -80 °C.
Sample pretreatment method: 30 µL of plasma samples was taken, and 120 µL of 0.1% formic acid in methanol containing 1 ng/mL internal standard verapamil was added. The mixture was vortexed for 5 min, and centrifuged at 10000 rpm for 10 min at low temperature. 70 µL of supernatant was taken, and 70 µL of water was added and mixed well. Analysis was performed by LC-MS instrument.
LC-MS analysis method: (1) chromatographic conditions: mobile phases A and B: 0.1% formic acid in water and 0.1% formic acid in acetonitrile, respectively; gradient elution mode; flow rate: 0.5 mL/min; injection volume: 10 µL; chromatographic column: nanomicro Unisil C18aq (4.6 mm × 150 mm, 5 µm); column temperature: 40°C. (2) Mass spectrometry conditions: For mass spectrometry, an electrospray ionization source (ESI), positive ion analysis mode, and multiple reaction monitoring (MRM) scanning mode were used.
For data processing, SCIEX OS (Version 2.1.6) software was used to quantify blood drug concentration data and PKSolver (Version 2.0) software was used to calculate pharmacokinetic parameters.

human GIPR = target: T2, human GIPR (Homo sapiens, UniProt P48546); assay: cAMP HTRF agonist activity assay in CHO-K1 cells expressing GIPR; format: cell-based; conditions: read-out: Activity against human GIPR (EC50 nM); also: 5% FBS, 0.1% Casein
T2 construct: expressed in transfected cells; host or cells: CHO-K1 clonal cell line
T2 sequence (P48546 22-466): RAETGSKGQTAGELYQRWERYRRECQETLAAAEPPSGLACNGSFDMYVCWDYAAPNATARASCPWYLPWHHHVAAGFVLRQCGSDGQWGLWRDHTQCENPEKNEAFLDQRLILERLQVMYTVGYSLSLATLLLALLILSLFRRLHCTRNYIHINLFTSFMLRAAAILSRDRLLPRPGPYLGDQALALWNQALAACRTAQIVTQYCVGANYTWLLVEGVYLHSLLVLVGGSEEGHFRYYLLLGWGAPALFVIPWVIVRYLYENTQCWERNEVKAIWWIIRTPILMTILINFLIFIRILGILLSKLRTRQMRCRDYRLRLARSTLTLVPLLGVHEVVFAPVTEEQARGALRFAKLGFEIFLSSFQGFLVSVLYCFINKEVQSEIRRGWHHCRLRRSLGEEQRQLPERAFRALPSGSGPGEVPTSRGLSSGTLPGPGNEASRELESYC
Method: as §1, §2

SMILES | EC50 (human GLP-1R) [nM] | clearance [1] [mL/h/kg] | half-life [1] [h] | EC50 (human GIPR) [nM]
CC[C@H](C)[C@H](NC(=O)[C@H](CO)NC(=O)[C@H](Cc1ccc(O)cc1)NC(=O)[C@H](CC(=O)O)NC(=O)[C@H](CO)NC(=O)[C@@H](NC(=O)[C@H](Cc1ccccc1)NC(=O)[C@@H](NC(=O)CNC(=O)[C@H](CCC(N)=O)NC(=O)C(C)(C)NC(=O)[C@@H](N)Cc1c[nH]cn1)[C@@H](C)O)[C@@H](C)O)C(=O)N[C@@H](CC(C)C)C(=O)N[C@@H](CC(C)C)C(=O)N[C@@H](CCC(=O)O)C(=O)N[C@@H](CCCCNC(=O)COCCOCCNC(=O)COCCOCCNC(=O)CC[C@H](NC(=O)CCCCCCCCCCCCCCCCCCC(=O)O)C(=O)O)C(=O)N[C@@H](CCCCN)C(=O)N[C@@H](C)C(=O)N[C@@H](C)C(=O)N[C@@H](CCC(N)=O)C(=O)N[C@@H](CCC(=O)O)C(=O)N[C@@H](Cc1ccccc1)C(=O)N[C@H](C(=O)N[C@@H](CCC(=O)O)C(=O)N[C@@H](Cc1c[nH]c2ccccc12)C(=O)N[C@@H](CC(C)C)C(=O)N[C@@H](CC(C)C)C(=O)N[C@@H](C)C(=O)NCC(=O)NCC(=O)N1CCC[C@H]1C(=O)N[C@@H](CO)C(=O)N[C@@H](CO)C(=O)NCC(=O)N[C@@H](C)C(=O)N1CCC[C@H]1C(=O)N1CCC[C@H]1C(=O)N1CCC[C@H]1C(=O)N[C@@H](CO)C(N)=O)C(C)C [Compound 0154] (H-H[Aib]QGTFTSDYSILLEK([AEEA-AEEA-γGlu-C20 diacid])KAAQEFVEWLLAGGPSSGAPPPS-NH2) | 0.033 |  |  | 
CC(C)C[C@H](NC(=O)[C@H](CC(C)C)NC(=O)[C@H](Cc1c[nH]c2ccccc12)NC(=O)[C@H](CCC(=O)O)NC(=O)[C@@H](NC(=O)[C@H](Cc1ccccc1)NC(=O)[C@H](CCC(=O)O)NC(=O)[C@H](CCC(N)=O)NC(=O)[C@H](C)NC(=O)C(C)(C)NC(=O)[C@H](CCCCN)NC(=O)[C@H](CCCCNC(=O)COCCOCCNC(=O)COCCOCCNC(=O)CC[C@H](NC(=O)CCCCCCCCCCCCCCCCCCC(=O)O)C(=O)O)NC(=O)[C@H](CCC(=O)O)NC(=O)[C@H](CC(C)C)NC(=O)[C@H](Cc1ccc(O)cc1)NC(=O)[C@H](CCCCN)NC(=O)[C@H](CO)NC(=O)[C@H](Cc1ccc(O)cc1)NC(=O)[C@H](CC(=O)O)NC(=O)[C@H](CO)NC(=O)[C@@H](NC(=O)[C@H](Cc1ccccc1)NC(=O)[C@@H](NC(=O)CNC(=O)[C@H](Cc1c[nH]cn1)NC(=O)C(C)(C)NC(=O)[C@@H](N)Cc1c[nH]cn1)[C@@H](C)O)[C@@H](C)O)C(C)C)C(=O)N[C@@H](C)C(=O)NCC(=O)NCC(=O)N1CCC[C@H]1C(=O)N[C@@H](CO)C(=O)N[C@@H](CO)C(=O)NCC(=O)N[C@@H](C)C(=O)N1CCC[C@H]1C(=O)N1CCC[C@H]1C(=O)N1CCC[C@H]1C(=O)N[C@@H](CO)C(N)=O [Compound 0110] (H-H[Aib]HGTFTSDYSKYLEK([AEEA-AEEA-γGlu-C20 diacid])K[Aib]AQEFVEWLLAGGPSSGAPPPS-NH2) | 0.016 |  |  | 
CC[C@H](C)[C@H](NC(=O)[C@H](CO)NC(=O)[C@H](Cc1ccc(O)cc1)NC(=O)[C@H](CC(=O)O)NC(=O)[C@H](CO)NC(=O)[C@@H](NC(=O)[C@H](Cc1ccccc1)NC(=O)[C@@H](NC(=O)CNC(=O)[C@H](Cc1c[nH]cn1)NC(=O)C(C)(C)NC(=O)[C@@H](N)Cc1c[nH]cn1)[C@@H](C)O)[C@@H](C)O)C(=O)N[C@@](C)(CC(C)C)C(=O)N[C@@H](CC(C)C)C(=O)N[C@@H](CCC(=O)O)C(=O)N[C@@H](CCCCNC(=O)COCCOCCNC(=O)COCCOCCNC(=O)CC[C@H](NC(=O)CCCCCCCCCCCCCCCCCCC(=O)O)C(=O)O)C(=O)N[C@@H](CCCCN)C(=O)N[C@@H](C)C(=O)N[C@@H](C)C(=O)N[C@@H](CCC(N)=O)C(=O)N[C@@H](CCC(=O)O)C(=O)N[C@@H](Cc1ccccc1)C(=O)N[C@H](C(=O)N[C@@H](CCC(=O)O)C(=O)N[C@@H](Cc1c[nH]c2ccccc12)C(=O)N[C@@H](CC(C)C)C(=O)N[C@@H](CC(C)C)C(=O)N[C@@H](C)C(=O)N[C@H](CCC(=O)O)C(=O)NCC(=O)N1CCC[C@H]1C(=O)N[C@@H](CO)C(=O)N[C@@H](CO)C(=O)NCC(=O)N[C@@H](C)C(=O)N1CCC[C@H]1C(=O)N1CCC[C@H]1C(=O)N1CCC[C@H]1C(=O)N[C@@H](CO)C(N)=O)C(C)C [Compound 0139] |  | 4.86 | 11.9 | 0.007
CC[C@H](C)[C@H](NC(=O)[C@H](CO)NC(=O)[C@H](CC(C)C)NC(=O)[C@H](CC(=O)O)NC(=O)[C@H](CO)NC(=O)[C@@H](NC(=O)[C@H](Cc1ccccc1)NC(=O)[C@@H](NC(=O)CNC(=O)[C@H](Cc1c[nH]cn1)NC(=O)C(C)(C)NC(=O)[C@@H](N)Cc1c[nH]cn1)[C@@H](C)O)[C@@H](C)O)C(=O)N[C@@](C)(CC(C)C)C(=O)N[C@@H](CC(C)C)C(=O)N[C@@H](CCC(=O)O)C(=O)N[C@@H](CCCCNC(=O)COCCOCCNC(=O)COCCOCCNC(=O)CC[C@H](NC(=O)CCCCCCCCCCCCCCCCCCC(=O)O)C(=O)O)C(=O)N[C@@H](CCCCN)C(=O)N[C@@H](C)C(=O)N[C@@H](C)C(=O)N[C@@H](CCC(N)=O)C(=O)N[C@@H](CCC(=O)O)C(=O)N[C@@H](Cc1ccccc1)C(=O)N[C@H](C(=O)N[C@@H](CCC(=O)O)C(=O)N[C@@H](Cc1c[nH]c2ccccc12)C(=O)N[C@@H](CC(C)C)C(=O)N[C@@H](CC(C)C)C(=O)N[C@@H](C)C(=O)N[C@H](CCC(=O)O)C(=O)NCC(=O)N1CCC[C@H]1C(=O)N[C@@H](CO)C(=O)N[C@@H](CO)C(=O)NCC(=O)N[C@@H](C)C(=O)N1CCC[C@H]1C(=O)N1CCC[C@H]1C(=O)N1CCC[C@H]1C(=O)N[C@@H](CO)C(N)=O)C(C)C [Compound 0142] (H-H[Aib]HGTFTSDLSI[αMeL]LEK([AEEA-AEEA-γGlu-C20 diacid])KAAQEFVEWLLA[dE]GPSSGAPPPS-NH2) |  | 5.52 | 10.5 | 0.007
CC[C@H](C)[C@H](NC(=O)[C@H](CO)NC(=O)[C@H](CC(C)C)NC(=O)[C@H](CC(=O)O)NC(=O)[C@H](CO)NC(=O)[C@@H](NC(=O)[C@H](Cc1ccccc1)NC(=O)[C@@H](NC(=O)CNC(=O)[C@H](Cc1c[nH]cn1)NC(=O)C(C)(C)NC(=O)[C@@H](N)Cc1c[nH]cn1)[C@@H](C)O)[C@@H](C)O)C(=O)N[C@@H](CC(C)C)C(=O)N[C@@H](CC(C)C)C(=O)N[C@@H](CCC(=O)O)C(=O)N[C@@H](CCCCNC(=O)COCCOCCNC(=O)COCCOCCNC(=O)CC[C@H](NC(=O)CCCCCCCCCCCCCCCCCCC(=O)O)C(=O)O)C(=O)N[C@@H](CCC(N)=O)C(=O)N[C@@H](C)C(=O)N[C@@H](C)C(=O)NC1(C(=O)N[C@@H](CCC(=O)O)C(=O)N[C@@H](Cc2ccccc2)C(=O)N[C@H](C(=O)N[C@@H](CCC(=O)O)C(=O)N[C@@H](Cc2c[nH]c3ccccc23)C(=O)N[C@@H](CC(C)C)C(=O)N[C@@H](CC(C)C)C(=O)N[C@@H](C)C(=O)N[C@H](CCC(=O)O)C(=O)NCC(=O)N2CCC[C@H]2C(=O)N[C@@H](CO)C(=O)N[C@@H](CO)C(=O)NCC(=O)N[C@@H](C)C(=O)N2CCC[C@H]2C(=O)N2CCC[C@H]2C(=O)N2CCC[C@H]2C(=O)N[C@@H](CO)C(N)=O)C(C)C)CCC1 [Compound 0145] |  | 7.74 | 7.7 | 0.003
